Each block holds one molecule with its values, some of them ahead of it.
Columns and labels:
[1] = system: human broncho-epithelial cell line 16HBE; assay: In vitro expression of eGFP in 16HBE cells (GFP ELISA); format: cell-based; conditions: for eGFP in 16HBE: LNP formulation nos. 1 and 7 (N/P 3:1), 24 h, 125 ng mRNA per well, (standard error of the mean); for Ratio Lipid/MC3: ratio of eGFP expression in 16HBE to the MC3 formulation
Experimental: In vitro expression of EGFP protein from LNP formulation nos. 1 and 7 described in Example 58 was tested in the human broncho-epithelial cell line 16HBE (Sigma-Aldrich SCC150. 16HBE cells were maintained in DMEM, low glucose with GlutaMAX™+pyruvate (Gibco 21885-025) supplemented with MEM Non-Essential Amino Acids (Gibco 11140035) and 10% Heat-Inactivated Fetal Calf Serum (HI-FCS). The cells were cultured at 37° C. in a humidified atmosphere with 5% CO2. The day prior to an experiment, cells were detached from culture flasks using TrypLE™ (Gibco 12604013) and seeded in cell culture treated 96-well plates (Greiner Bio-One #655090) at a density of 20.000 cells per well. At the day of an experiment, 1 hour before incubation with LNPs, medium was removed and replaced with 95 ul DMEM including 1% HI-FCS. After 1 hour of conditioning, 5 ul of LNPs in PBS was added and mixed by a Bravo robot, resulting in a final concentration of 50-125 ng mRNA per well. Cells were then incubated for 24 h at 37° C. in a humidified atmosphere with 5% CO2. Absolute quantification of EGFP protein was done using ELISA (GFP SimpleStep ELISA kit, Abcam #ab171581). After 24 h of incubation, cells were lysed by adding 100 ul of lysis buffer to each well (Lysis buffer included in the kit, or Abcam products #ab193970 and #ab193971) Cells were then lysed by a freeze-thaw cycle in lysis buffer. Lysates were measured in appropriate dilutions according to the kit manufacturer's instructions. Results are reported as number of EGFP molecules expressed per mRNA dosed, after 24 h, calculated from the values of 125 ng mRNA per well. Results are plotted as Mean+SEM from triplicate values.
The expression of eGFP in 16HBE cytosol proves the function of the used LNP composition of eGFP mRNA in promoting gene transfection and […]. The quantification of eGFP allows to compare different LNP compositions with the MC3-based lipid composition, used as a comparator, with regard to the induction of protein expression in 16HBE to obtain the ratio of lipid to MC3. In this application, the LNP compositions differ in their ionizable lipid (IL) component. […] (see FIG. 1).

[2] = mRNA encapsulation efficiency of LNP formulations (Quant-it Ribogreen assay with Triton-X100); format: physicochemical; conditions: DMPE-PEG2000
In short: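 LNPs of ionizable lipid/cholesterol/DSPC/polymer-lipid (50/38.5/10/1.5 mol%, 12.5 mM total lipid) formed by microfluidic mixing with eGFP mRNA in 50 mM citrate, pH 3, at 3:1 aqueous:ethanol and N/P 3:1 or 6:1. Encapsulation efficiency measured by RiboGreen with and without Triton-X100 disruption.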

[3] = LNP particle size by dynamic light scattering (Zetasizer Nano ZS); format: physicochemical; conditions: DMPE-PEG2000
In short: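 eGFP mRNA in 50 mM citrate (from pH 3 buffer) was mixed microfluidically (Aq:EtOH 3:1, 12 mL/min) with ethanolic lipids, ionizable lipid/cholesterol/DSPC/polymer-conjugated lipid 50/38.5/10/1.5 mol %, 12.5 mM total, at N/P 3:1 or 6:1. Dynamic light scattering gave z-average diameter. Number-weighted distributions used refractive index 1.45.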

[4] = system: Female BALB/c mice; assay: eGFP expression in the liver at 24 hours after intravenous administration of LNP formulations to mouse (ELISA); format: in vivo; conditions: LNP N/P 3:1, DMPE-PEG2000
In short: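 Mice (6-8 weeks, n=4/group) received a slow IV tail-vein bolus of LNP formulation at 0.3 mg/kg. Livers were harvested 24 hours post-dose and eGFP quantified by ELISA.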

[5] = Table 1, LNP with eGFP mRNA, N/P ratio 3:1
[6] = Table 1, number-average particle diameter, N/P ratio 3:1
[7] = Table 1, z-average particle diameter, N/P ratio 3:1

- % EE [2, 5]: 97%
- % EE ([2]; Table 1, LNP with eGFP mRNA, N/P ratio 6:1): 94%
- <d>N (nm) [3, 6]: 68 nm
- <d>N (nm) ([3]; Table 1, number-average particle diameter, N/P ratio 6:1): 57 nm
- <d>Z (nm) [3, 7]: 84 nm
- <d>Z (nm) ([3]; Table 1, z-average particle diameter, N/P ratio 6:1): 74 nm
Compound: CCCCCC(CCCCC)CCOC(=O)CCCCCCCC(CCCCCCCC(=O)OCCC(CCCCC)CCCCC)NC1CC2(COC2)C1 [Compound 1, Bis(3-pentyloctyl) 9-((2-oxaspiro[3.3]heptan-6-yl)amino)heptadecanedioate]
- eGFP in 16HBE [1]: 0.044 (±0.004) number of protein molecules per number of dosed mRNA molecules
- Ratio Lipid/MC3 [1]: 1.9

- % EE [2, 5]: 99%
- % EE ([2]; Table 3, N/P ratio 3:1): 98%
- % EE ([2]; Table 4, N/P ratio 3:1): 98%
- % EE ([2]; Table 5, N/P ratio 3:1): 98%
- % EE ([2]; Table 6, N/P ratio 3:1): 98%
- <d>N (nm) [3, 6]: 72 nm
- <d>Z (nm) [3, 7]: 86 nm
- <d>N (nm) ([3]; Table 3, N/P ratio 3:1): 63 nm
- <d>Z (nm) ([3]; Table 3, N/P ratio 3:1): 79 nm
- <d>N (nm) ([3]; Table 4, N/P ratio 3:1): 71 nm
- <d>Z (nm) ([3]; Table 4, N/P ratio 3:1): 88 nm
- <d>N (nm) ([3]; Table 5, N/P ratio 3:1): 66 nm
- <d>Z (nm) ([3]; Table 5, N/P ratio 3:1): 82 nm
- <d>N (nm) ([3]; Table 6, N/P ratio 3:1): 61 nm
- <d>Z (nm) ([3]; Table 6, N/P ratio 3:1): 74 nm
Compound: CCCCC/C=C\C/C=C\CCCCCCCCC(CCCCCCCC/C=C\C/C=C\CCCCC)OC(=O)CCCN(C)C [MC3, [(10Z,13Z)-1-[(9Z,12Z)-octadeca-9,12-dienyl]nonadeca-10,13-dienyl] 4-(dimethylamino)butanoate, reference compound]
- eGFP in 16HBE [1]: 0.023 (±0.001) number of protein molecules per number of dosed mRNA molecules
- Ratio Lipid/MC3 [1]: 1
- Liver eGFP protein (ng/g tissue) ([4]; Table 3, 0.3 mg/kg): 3091.5 ng/g tissue
- Liver eGFP protein (ng/g tissue) ([4]; Table 4, 0.3 mg/kg): 916.4 ng/g tissue
- Liver eGFP protein (ng/g tissue) ([4]; Table 5, 0.3 mg/kg): 1114.4 ng/g tissue
- Liver eGFP protein (ng/g tissue) ([4]; Table 6, 0.3 mg/kg): 3802.0 ng/g tissue

— US20230181482A1, “LIPIDS FOR DELIVERY OF NUCLEIC ACID SEGMENTS” (AstraZeneca AB, priority 2021, published 2023)
